What is called Ki is a dissociation constant, usually derived from enzyme kinetics or from competition with a known ligand. A low value points to higher affinity. In general, IC50 refers to the midpoint of a concentration-inhibition curve. A high value points to weaker potency in that assay.

Data on 2 compounds can be found in article PMC10254531, “The Effects of 1-O-Acetylbritannilactone Isolated from Inula britannica Flowers on Human Neutrophil Elastase and Inflammation of RAW 264.7 Cells and Zebrafish Larvae” (Molecules, 2023).

The target in test [1] is T1, human neutrophil elastase (HNE) (Homo sapiens, UniProt P08246).
T1 construct: gene ELANE
T1 sequence (P08246 30-247): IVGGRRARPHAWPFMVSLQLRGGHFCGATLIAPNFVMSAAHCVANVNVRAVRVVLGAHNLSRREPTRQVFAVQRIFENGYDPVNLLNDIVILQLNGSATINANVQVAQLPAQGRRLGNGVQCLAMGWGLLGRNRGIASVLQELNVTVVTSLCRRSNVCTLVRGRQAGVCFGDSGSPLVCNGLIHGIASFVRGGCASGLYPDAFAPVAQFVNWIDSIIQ
In words: chromogenic enzyme assay with MeO-Suc-AAPV-pNA; Lineweaver-Burk and Dixon plots. Format: biochemical.

Test [2] deals with T1, human neutrophil elastase (HNE). In words: chromogenic enzyme assay with MeO-Suc-AAPV-pNA (positive control). Format: biochemical.

`C=C1C(=O)O[C@@H]2CC(C)=C([C@@H](C)CCCOC(C)=O)[C@@H](O)[C@H]12` [ABL, 1-O-acetylbritannilactone]: the Ki in test [1] was 2.4 µM.

In the case of `O=C(O[C@@H]1Cc2c(O)cc(O)cc2O[C@@H]1c1cc(O)c(O)c(O)c1)c1cc(O)c(O)c(O)c1` [epigallocatechin gallate], in test [2], the IC50 worked out at 7.2 ± 0.5 µM.
